We go through twelve compounds from US4882328A, “Thiazetidine derivatives” (Nippon Shinyaku Co. Ltd., priority 1987, dated 1989).

As usually defined, the MIC is the smallest concentration in the dilution series that meets the test's criterion for growth inhibition.

≈ marks a conversion by molar mass, not a printed value. Where a name gives a salt, the structure may show the parent alone.

Experiment [1] has as its system P. aeruginosa E-2. Put plainly: Measurement of Minimal Growth Inhibitory Concentration (MIC), agar plate dilution, P. aeruginosa. The class given is cell-based. The following applies: Pseudomonas aeruginosa, E2, 10^6 CFU/ml, 37° C., 18 hours, read-out: MIC (3). On the procedure: (§1) 1. Measurement of Minimal Growth Inhibitory Concentration (MIC)
(§2) MIC was measured by agar plate dilution assay method in accordance with the standard by Japan Chemical Therapeutics Association (refer to Journal of Japan Chemical Therapeutics Association, 29 (1), 76 to 79 (1981).
(§3) Briefly, a bacteria suspension as incubated in a bouillon medium for measurement of sensitivity, at 37° C. for 18 hours was diluted to 10^6 CFU/ml with the same medium. This was inoculated on an agar medium for measurement of sensitivity, which contained a compound to be tested, with a microplanter and incubated at 37° C. for 18 hours and then the MIC was measured. Enoxacin was used as a control.

For experiment [2], the system named is P. aeruginosa E-2. As to the kind of experiment: Remedial Effect against Mouse Infectious Diseases, P. aeruginosa E-2. The class given is in vivo, ddy male mice infected with P. aeruginosa E-2. More on the design: key: -: ineffective; +: somewhat poorer than enoxacin; ++: comparable to enoxacin; +++: extremely effective. The following applies: P. aeruginosa E-2, 7.5×10^4 CFU/mouse; single oral dose 2 h after inoculation; survival after one week, compared with enoxacin. On the procedure:
(§4) 2. Remedial Effect against Mouse Infectious Diseases:
(§5) E. coli KC-14 and P. aeruginosa E-2 each were suspended in 4% mucin, and 0.25 ml of each of the resulting suspensions was inoculated into the abdominal cavity of ddy male mice (weight: about 20 g, 4-week age, 10 mice for one group). The amount of the bacteria inoculated was 5.1×10^4 CFU/mouse for E. coli KC-14 and 7.5×10^4 CFU/mouse for P. aeruginosa E-2. Two hours after the inoculation of the bacteria, the compound to be tested was orally administered once, and the number of the animals living after one week was counted. The results obtained were compared with those using the control enoxacin.

For another experiment, the system named is E. coli KC-14. Put plainly: Remedial Effect against Mouse Infectious Diseases, E. coli KC-14. It is filed as in vivo, ddy male mice infected with E. coli KC-14. More on the design: key: -: ineffective; +: somewhat poorer than enoxacin; ++: comparable to enoxacin; +++: extremely effective. The following applies: E. coli KC-14, 5.1×10^4 CFU/mouse; single oral dose 2 h after inoculation; survival after one week, compared with enoxacin. On the procedure: as §4, §5

The next experiment relates to E. coli. Put plainly: Measurement of Minimal Growth Inhibitory Concentration (MIC), agar plate dilution, E. coli. It is filed as cell-based. The following applies: Escherichia coli, 10^6 CFU/ml, 37° C., 18 hours, read-out: MIC (2). On the procedure: as §1, §2, §3
The subject of another experiment is S. aureus. As to the kind of experiment: Measurement of Minimal Growth Inhibitory Concentration (MIC), agar plate dilution, S. aureus. It is filed as cell-based. The following applies: Staphylococcus aureus, 10^6 CFU/ml, 37° C., 18 hours, read-out: MIC (1). On the procedure:
as §1, §2, §3

Consider `CCn1cc(C(=O)O)c(=O)c2cc(F)c(N3CCNCC3)nc21` [Enoxacin, enoxacin, reference compound], for which the MIC in the experiment with P. aeruginosa E-2 [1] is 0.78 µg/mL (≈ 2.44 µM); in the experiment on E. coli, 0.2 µg/mL (≈ 0.624 µM); with S. aureus, 0.78 µg/mL (≈ 2.44 µM). For the same compound, the “Remedial Effect (3)” value in the experiment with P. aeruginosa E-2 [2] is recorded as “++”. In the experiment on E. coli KC-14, the “Remedial Effect (2)” value was “++”.
As to `O=C(O)c1c2n(c3nc(N4CCNCC4)c(F)cc3c1=O)CS2` [Example 2, 6-Fluoro-7-(1-piperazinyl)-4-oxo-4H[1,3]-thiazeto[3,2-a]-1,8-naphthyridine-3-carboxylic Acid Hydrochloride], the MIC worked out at 0.39 µg/mL in the experiment with P. aeruginosa E-2 [1], 0.05 µg/mL in the experiment with E. coli and 0.39 µg/mL in the experiment on S. aureus. Also, in the experiment with P. aeruginosa E-2 [2], the “Remedial Effect (3)” value is given as “+”. Besides, in the experiment with E. coli KC-14, the “Remedial Effect (2)” value is on record as “+”.
With `CN1CCN(c2nc3c(cc2F)c(=O)c(C(=O)O)c2n3CS2)CC1` [Example 3, 6-Fluoro-7-(4-methyl-1-piperazinyl)-4-oxo-4H[1,3]-thiazeto[3,2-a]-1,8-naphthyridine-3-carboxylic Acid Hydrochloride], the MIC with P. aeruginosa E-2 [1] was 0.39 µg/mL; in the experiment with E. coli, 0.025 µg/mL; with S. aureus it was 0.39 µg/mL. In addition, the “Remedial Effect (3)” value in the experiment with P. aeruginosa E-2 [2] is “+++”. Besides, the “Remedial Effect (2)” value in the experiment on E. coli KC-14 is listed as “+++”.
Regarding `CC1Sc2c(C(=O)O)c(=O)c3cnc(N4CCN(C)CC4)nc3n21` (centres unmarked) [Example 7, 1-Methyl-7-(4-methyl-1-piperazinyl)-4-oxo-4H[1,3]thiazeto[3',2'-1,2]pyrido[2,3-d]pyrimidine-3-carboxylic Acid], the MIC in the experiment with P. aeruginosa E-2 [1] was found to be 1.56 µg/mL (≈ 4.49 µM); in the experiment on E. coli, 0.1 µg/mL (≈ 0.288 µM); in the experiment on S. aureus it was 1.56 µg/mL (≈ 4.49 µM). For the same compound, in the experiment with P. aeruginosa E-2 [2], the “Remedial Effect (3)” value is “-”. In addition, in the experiment with E. coli KC-14, the “Remedial Effect (2)” value is reported as “++”.
`CC1Sc2c(C(=O)O)c(=O)c3cc(F)c(N4CCNCC4)nc3n21` (centres unmarked) [Example 12, 6-Fluoro-1-methyl-4-oxo-7-(1-piperazinyl)-4H[1,3]thiazeto[3,2-a]-1,8-naphthyridine-3-carboxylic Acid Hydrochloride]: the MIC in the experiment on P. aeruginosa E-2 [1] turned out to be 0.1 µg/mL; in the experiment on E. coli it was 0.0125 µg/mL; with S. aureus, 0.1 µg/mL. Moreover, the “Remedial Effect (3)” value in the experiment with P. aeruginosa E-2 [2] is reported as “+++”. Also, in the experiment on E. coli KC-14, the “Remedial Effect (2)” value was “+++”.
As to `CC1Sc2c(C(=O)O)c(=O)c3cc(F)c(N4CCN(C)CC4)nc3n21` (centres unmarked) [Example 14, 6-Fluoro-1-methyl-7-(4-methyl-1-piperazinyl)-4-oxo-4H[1,3]thiazeto[3,2-a]-1,8-naphthyridine-3-carboxylic Acid], the MIC in the experiment on P. aeruginosa E-2 [1] was 0.2 µg/mL (≈ 0.549 µM); with E. coli it was 0.0125 µg/mL (≈ 0.0343 µM); in the experiment on S. aureus it was 0.1 µg/mL (≈ 0.274 µM). Moreover, in the experiment with P. aeruginosa E-2 [2], the “Remedial Effect (3)” value is given as “+++”. In addition, in the experiment on E. coli KC-14, the “Remedial Effect (2)” value is “+++”.
Take `CC1Sc2c(C(=O)O)c(=O)c3cc(F)c(N4CCOCC4)nc3n21` (centres unmarked) [Example 18, 6-Fluoro-1-methyl-7-morpholino-4-oxo-4H[1,3]thiazeto[3,2-a]-1,8-naphthyridine-3-carboxylic Acid]: the MIC in the experiment on P. aeruginosa E-2 [1] was found to be 0.78 µg/mL (≈ 2.22 µM); in the experiment on E. coli it was 0.05 µg/mL (≈ 0.142 µM); with S. aureus it was 0.1 µg/mL (≈ 0.285 µM). Moreover, the “Remedial Effect (3)” value in the experiment on P. aeruginosa E-2 [2] is “-”. Moreover, the “Remedial Effect (2)” value in the experiment with E. coli KC-14 is “+”.
Taken in the same sequence, the figures for `O=C(O)c1c2n(c3nc(N4CCNCC4)c(Cl)cc3c1=O)CS2` [Example 20, 6-Chloro-4-oxo-7-(1-piperazinyl)-4H[1,3]thiazeto[3,2-a]-1,8-naphthyridine-3-carboxylic Acid Hydrochloride] were 0.78 µg/mL, 0.05 µg/mL, 0.78 µg/mL, “-” and “+”.
On to `CC1Sc2c(C(=O)O)c(=O)c3cc(Cl)c(N4CCNCC4)nc3n21` (centres unmarked) [Example 21, 6-Chloro-1-methyl-4-oxo-7-(1-piperazinyl)-4H[1,3]thiazeto[3,2-a]-1,8-naphthyridine-3-carboxylic Acid Hydrochloride], for which the MIC in the experiment on P. aeruginosa E-2 [1] worked out at 0.78 µg/mL; in the experiment on E. coli, 0.025 µg/mL; in the experiment with S. aureus, 0.39 µg/mL. The “Remedial Effect (3)” value in the experiment with P. aeruginosa E-2 [2] is reported as “+”. Moreover, in the experiment with E. coli KC-14, the “Remedial Effect (2)” value is recorded as “+”.
For the compound `CC1Sc2c(C(=O)O)c(=O)c3cc(Cl)c(N4CCN(C)CC4)nc3n21` (centres unmarked) [Example 25, 6-Chloro-1-methyl-7-(4-methyl-1-piperazinyl)-4-oxo-4H[1,3]thiazeto[3,2-a]-1,8-naphthyridine-3-carboxylic Acid Ethanesulfonate], the results for the MIC in the experiment on P. aeruginosa E-2 [1], with E. coli and in the experiment with S. aureus were 0.78 µg/mL, 0.025 µg/mL and 0.39 µg/mL, respectively. Besides, the “Remedial Effect (3)” value with P. aeruginosa E-2 [2] is “-”. In addition, the “Remedial Effect (2)” value in the experiment with E. coli KC-14 is given as “+”.
Take `O=C(O)c1c2n(c3nc(N4CCNCC4)c(F)cc3c1=O)C(c1ccccc1)S2` (centres unmarked) [Example 34, 6-Fluoro-1-phenyl-7-piperazinyl-4-oxo-4H[1,3]thiazeto[3,2-a]-1,8-naphthylidine-3-carboxylic acid hydrochloride]: the minimum inhibitory concentration (MIC) in the experiment with P. aeruginosa E-2 [1] worked out at 0.39 µg/mL; with E. coli it was 0.1 µg/mL; in the experiment on S. aureus, 0.39 µg/mL.
With `O=C(O)c1c2n(c3nc(N4CCNCC4)c(F)cc3c1=O)C(c1ccc(F)cc1)S2` (centres unmarked) [Example 35, 6-fluoro-1-(4-fluorophenyl)-7-piperazinyl-4-oxo-4H(1,3)thiazeto(3,2-a)-1,8-naphthylidine-3-carboxylic acid], the MIC in the experiment with P. aeruginosa E-2 [1] amounted to 0.39 µg/mL (≈ 0.906 µM); with E. coli, 0.1 µg/mL (≈ 0.232 µM); in the experiment with S. aureus, 0.39 µg/mL (≈ 0.906 µM).
